Measurements as given in patent US20230085307A1, “PYRIDAZINONE COMPOUND AND HERBICIDE” (NISSAN CHEMICAL CORPORATION, priority 2019, published 2023).

Assays:
[1] = system: late watergrass; test: Test Example 2: herbicidal activity, application during weed generation under submerged conditions (Table 17, symbol A); assay type: in vivo, late watergrass (Echinochloa oryzicola); settings: AAH 320 g/ha; application during weed generation, submerged conditions
Method in brief: (§1)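 Wagner pot, alluvial soil, 4 cm flood; mixed sowing of all species; greenhouse 25° C.–30° C. Emulsifiable formulation, water-diluted to predetermined dose, applied to paddy water at 1–2 leaf stage. Effect rated at 3 wk using the earlier test's scoring criteria.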

[2] = system: Japanese bulrush; test: Test Example 2: herbicidal activity, application during weed generation under submerged conditions (Table 17, symbol B); assay type: in vivo, Japanese bulrush (Schoenoplectus juncoides); settings: AAH 320 g/ha; application during weed generation, submerged conditions
Method in brief: as §1

[3] = system: oval-leafed pondweed; test: Test Example 2: herbicidal activity, application during weed generation under submerged conditions (Table 17, symbol C); assay type: in vivo, oval-leafed pondweed (Monochoria vaginalis); settings: AAH 320 g/ha; application during weed generation, submerged conditions
Method in brief: as §1

[4] = system: barnyard grass; test: Test Example 3: herbicidal effect by foliage application, Wagner pot (Table 18, symbol H); assay type: in vivo, barnyard grass (Echinochloa crus-galli)
Method in brief: (§2)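 Plants were sown in alluvial soil held under 0.1–0.5 cm standing water and grown 14 days in a greenhouse at 25–30 °C. An emulsifiable formulation, water-diluted to the set dose, was then sprayed onto the foliage, and effects were scored three weeks later using previously defined criteria.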

[5] = system: Chinese sprangletop; test: Test Example 3: herbicidal effect by foliage application, Wagner pot (Table 18, symbol D); assay type: in vivo, chinese sprangletop (Leptochloa chinensis)
Method in brief: as §2

[6] = system: rice flat sedge; test: Test Example 3: herbicidal effect by foliage application, Wagner pot (Table 18, symbol E); assay type: in vivo, rice flat sedge (Cyperus iria)
Method in brief: as §2

[7] = system: southern crabgrass; test: Test Example 4: herbicidal effect by soil treatment (Table 19, symbol F); assay type: in vivo, southern crabgrass (Digitaria ciliaris); settings: amount of applied herbicide 320 g/ha
Method in brief: (§3)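 Pre-emergence style soil spray: seeds under ~1.5 cm sterilized diluvial soil received a uniform coat of emulsion diluted to the predetermined herbicide amount. Greenhouse 25–30° C; readout at week three on previously defined criteria.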

[8] = system: green foxtail; test: Test Example 4: herbicidal effect by soil treatment (Table 19, symbol G); assay type: in vivo, green foxtail (Setaria viridis); settings: amount of applied herbicide 320 g/ha
Method in brief: as §3

[9] = system: barnyard grass; test: Test Example 4: herbicidal effect by soil treatment (Table 19, symbol H); assay type: in vivo, barnyard grass (Echinochloa crus-galli); settings: amount of applied herbicide 320 g/ha
Method in brief: as §3

[10] = system: wild oat; test: Test Example 4: herbicidal effect by soil treatment (Table 19, symbol I); assay type: in vivo, wild oat (Avena fatua); settings: amount of applied herbicide 320 g/ha
Method in brief: as §3

[11] = system: blackgrass; test: Test Example 4: herbicidal effect by soil treatment (Table 19, symbol J); assay type: in vivo, blackgrass (Alopecurus myosuroides); settings: amount of applied herbicide 320 g/ha
Method in brief: as §3

[12] = system: Italian ryegrass; test: Test Example 4: herbicidal effect by soil treatment (Table 19, symbol K); assay type: in vivo, Italian ryegrass (Lolium multiflorum); settings: amount of applied herbicide 320 g/ha
Method in brief: as §3

[13] = system: windgrass; test: Test Example 4: herbicidal effect by soil treatment (Table 19, symbol L); assay type: in vivo, windgrass (Apera spica-venti); settings: amount of applied herbicide 320 g/ha
Method in brief: as §3

[14] = system: velvetleaf; test: Test Example 4: herbicidal effect by soil treatment (Table 19, symbol M); assay type: in vivo, velvetleaf (Abutilon theophrasti); settings: amount of applied herbicide 320 g/ha
Method in brief: as §3

[15] = system: redroot pigweed; test: Test Example 4: herbicidal effect by soil treatment (Table 19, symbol N); assay type: in vivo, redroot pigweed (Amaranthus retroflexus); settings: amount of applied herbicide 320 g/ha
Method in brief: as §3

[16] = system: lambsquarters; test: Test Example 4: herbicidal effect by soil treatment (Table 19, symbol O); assay type: in vivo, lambsquarters (Chenopodium album); settings: amount of applied herbicide 320 g/ha
Method in brief: as §3

[17] = system: chickweed; test: Test Example 4: herbicidal effect by soil treatment (Table 19, symbol P); assay type: in vivo, common chickweed (Stellaria media); settings: amount of applied herbicide 320 g/ha
Method in brief: as §3

[18] = system: persian speedwell; test: Test Example 4: herbicidal effect by soil treatment (Table 19, symbol R); assay type: in vivo, Persian speedwell (Veronica persica); settings: amount of applied herbicide 320 g/ha
Method in brief: as §3

[19] = system: southern crabgrass; test: Test Example 5: herbicidal effect by foliage application, plastic box (Table 20, symbol F); assay type: in vivo, southern crabgrass (Digitaria ciliaris); settings: 320 g/ha
Method in brief: (§4)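 Plants were sown into sterilized diluvial soil under about 1.5 cm cover and kept in a greenhouse at 25° C. to 30° C. Fourteen days on, foliage received an even spray of the diluted emulsion. Herbicidal or crop effect was judged three weeks afterwards.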

[20] = system: green foxtail; test: Test Example 5: herbicidal effect by foliage application, plastic box (Table 20, symbol G); assay type: in vivo, green foxtail (Setaria viridis); settings: 320 g/ha
Method in brief: as §4

[21] = system: barnyard grass; test: Test Example 5: herbicidal effect by foliage application, plastic box (Table 20, symbol H); assay type: in vivo, barnyard grass (Echinochloa crus-galli); settings: 320 g/ha
Method in brief: as §4

[22] = system: wild oat; test: Test Example 5: herbicidal effect by foliage application, plastic box (Table 20, symbol I); assay type: in vivo, wild oat (Avena fatua); settings: 320 g/ha
Method in brief: as §4

[23] = system: blackgrass; test: Test Example 5: herbicidal effect by foliage application, plastic box (Table 20, symbol J); assay type: in vivo, blackgrass (Alopecurus myosuroides); settings: 320 g/ha
Method in brief: as §4

[24] = system: Italian ryegrass; test: Test Example 5: herbicidal effect by foliage application, plastic box (Table 20, symbol K); assay type: in vivo, Italian ryegrass (Lolium multiflorum); settings: 320 g/ha
Method in brief: as §4

[25] = system: windgrass; test: Test Example 5: herbicidal effect by foliage application, plastic box (Table 20, symbol L); assay type: in vivo, windgrass (Apera spica-venti); settings: 320 g/ha
Method in brief: as §4

[26] = system: velvetleaf; test: Test Example 5: herbicidal effect by foliage application, plastic box (Table 20, symbol M); assay type: in vivo, velvetleaf (Abutilon theophrasti); settings: 320 g/ha
Method in brief: as §4

[27] = system: redroot pigweed; test: Test Example 5: herbicidal effect by foliage application, plastic box (Table 20, symbol N); assay type: in vivo, redroot pigweed (Amaranthus retroflexus); settings: 320 g/ha
Method in brief: as §4

[28] = system: lambsquarters; test: Test Example 5: herbicidal effect by foliage application, plastic box (Table 20, symbol O); assay type: in vivo, lambsquarters (Chenopodium album); settings: 320 g/ha
Method in brief: as §4

[29] = system: chickweed; test: Test Example 5: herbicidal effect by foliage application, plastic box (Table 20, symbol P); assay type: in vivo, common chickweed (Stellaria media); settings: 320 g/ha
Method in brief: as §4

[30] = system: persian speedwell; test: Test Example 5: herbicidal effect by foliage application, plastic box (Table 20, symbol R); assay type: in vivo, Persian speedwell (Veronica persica); settings: 320 g/ha
Method in brief: as §4

[31] = amount of applied herbicide 320 g/ha
[32] = foliage application, three weeks after application
[33] = foliage application after 14-day growth, evaluated three weeks after application

Question: What does the source list for `CCc1nn(C)c(=O)c(-c2c(-c3ccc(F)cc3)sc3ccc(F)cc23)c1O` [2-406]?
Answer: herbicidal effect rating, A: late watergrass [1]: 2 (Herbicidal rate of 20% or more and less than 40%); herbicidal effect rating, B: Japanese bulrush [2]: 0 (Herbicidal rate of 5% or less (almost no effect)); herbicidal effect rating, C: oval-leafed pondweed [3]: 0 (Herbicidal rate of 5% or less (almost no effect)); herbicidal effect on H: barnyard grass [4, 31]: 4 (Herbicidal rate of 70% or more and less than 90%); herbicidal effect on D: Chinese sprangletop [5, 31]: 4 (Herbicidal rate of 70% or more and less than 90%); herbicidal effect on E: rice flat sedge [6, 31]: 5 (Herbicidal rate of 90% or more (almost completely withered)); herbicidal effect, F: southern crabgrass [7]: 2 (Herbicidal rate of 20% or more and less than 40%); herbicidal effect, G: green foxtail [8]: 4 (Herbicidal rate of 70% or more and less than 90%); herbicidal effect, H: barnyard grass [9]: 4 (Herbicidal rate of 70% or more and less than 90%); herbicidal effect, I: wild oat [10]: 0 (Herbicidal rate of 5% or less (almost no effect)); herbicidal effect, J: blackgrass [11]: 0 (Herbicidal rate of 5% or less (almost no effect)); herbicidal effect, K: Italian ryegrass [12]: 3 (Herbicidal rate of 40% or more and less than 70%); herbicidal effect, L: windgrass [13]: 0 (Herbicidal rate of 5% or less (almost no effect)); herbicidal effect, M: velvetleaf [14]: 3 (Herbicidal rate of 40% or more and less than 70%); herbicidal effect, N: redroot pigweed [15]: 4 (Herbicidal rate of 70% or more and less than 90%); herbicidal effect, O: lambsquarters [16]: 3 (Herbicidal rate of 40% or more and less than 70%); herbicidal effect, P: chickweed [17]: 3 (Herbicidal rate of 40% or more and less than 70%); herbicidal effect, R: persian speedwell [18]: 0 (Herbicidal rate of 5% or less (almost no effect)); F: southern crabgrass, herbicidal effect grade [19, 32]: 3 (Herbicidal rate of 40% or more and less than 70%); G: green foxtail, herbicidal effect grade [20, 32]: 5 (Herbicidal rate of 90% or more (almost completely withered)); H: barnyard grass, herbicidal effect grade [21, 32]: 4 (Herbicidal rate of 70% or more and less than 90%); I: wild oat, herbicidal effect grade [22, 32]: 0 (Herbicidal rate of 5% or less (almost no effect)); J: blackgrass, herbicidal effect grade [23, 32]: 3 (Herbicidal rate of 40% or more and less than 70%); K: Italian ryegrass, herbicidal effect grade [24, 32]: 4 (Herbicidal rate of 70% or more and less than 90%); L: windgrass, herbicidal effect grade [25, 32]: 4 (Herbicidal rate of 70% or more and less than 90%); M: velvetleaf, herbicidal effect grade [26, 32]: 5 (Herbicidal rate of 90% or more (almost completely withered)); N: redroot pigweed, herbicidal effect grade [27, 32]: 5 (Herbicidal rate of 90% or more (almost completely withered)); O: lambsquarters, herbicidal effect grade [28, 32]: 4 (Herbicidal rate of 70% or more and less than 90%); P: chickweed, herbicidal effect grade [29, 32]: 5 (Herbicidal rate of 90% or more (almost completely withered)); R: persian speedwell, herbicidal effect grade [30, 32]: 5 (Herbicidal rate of 90% or more (almost completely withered))

Question: What does the source list for `CCCC(=O)Oc1c(C)nn(C)c(=O)c1-c1c(-c2ccc(C(F)(F)F)cc2)sc2c(Cl)cccc12` [4-030]?
Answer: herbicidal effect rating, A: late watergrass [1]: 3 (Herbicidal rate of 40% or more and less than 70%); herbicidal effect rating, B: Japanese bulrush [2]: 3 (Herbicidal rate of 40% or more and less than 70%); herbicidal effect rating, C: oval-leafed pondweed [3]: 3 (Herbicidal rate of 40% or more and less than 70%); herbicidal effect on barnyard grass (H) ([4]; 320 g/ha): 3 (Herbicidal rate of 40% or more and less than 70%); herbicidal effect on Chinese sprangletop (D) ([5]; 320 g/ha): 5 (Herbicidal rate of 90% or more (almost completely withered)); herbicidal effect on rice flat sedge (E) ([6]; 320 g/ha): 3 (Herbicidal rate of 40% or more and less than 70%); Herbicidal effect by soil treatment, F: southern crabgrass [7]: 0 (Herbicidal rate of 5% or less (almost no effect)); Herbicidal effect by soil treatment, G: green foxtail [8]: 0 (Herbicidal rate of 5% or less (almost no effect)); Herbicidal effect by soil treatment, H: barnyard grass [9]: 0 (Herbicidal rate of 5% or less (almost no effect)); Herbicidal effect by soil treatment, I: wild oat [10]: 0 (Herbicidal rate of 5% or less (almost no effect)); Herbicidal effect by soil treatment, J: blackgrass [11]: 0 (Herbicidal rate of 5% or less (almost no effect)); Herbicidal effect by soil treatment, K: Italian ryegrass [12]: 0 (Herbicidal rate of 5% or less (almost no effect)); Herbicidal effect by soil treatment, L: windgrass [13]: 0 (Herbicidal rate of 5% or less (almost no effect)); Herbicidal effect by soil treatment, M: velvetleaf [14]: 0 (Herbicidal rate of 5% or less (almost no effect)); Herbicidal effect by soil treatment, N: redroot pigweed [15]: 0 (Herbicidal rate of 5% or less (almost no effect)); Herbicidal effect by soil treatment, O: lambsquarters [16]: 0 (Herbicidal rate of 5% or less (almost no effect)); Herbicidal effect by soil treatment, P: chickweed [17]: 3 (Herbicidal rate of 40% or more and less than 70%); Herbicidal effect by soil treatment, R: persian speedwell [18]: 0 (Herbicidal rate of 5% or less (almost no effect)); herbicidal effect on F: southern crabgrass (evaluation grade 0-5) [19, 33]: 0 (Herbicidal rate of 5% or less (almost no effect)); herbicidal effect on G: green foxtail (evaluation grade 0-5) [20, 33]: 0 (Herbicidal rate of 5% or less (almost no effect)); herbicidal effect on H: barnyard grass (evaluation grade 0-5) [21, 33]: 0 (Herbicidal rate of 5% or less (almost no effect)); herbicidal effect on I: wild oat (evaluation grade 0-5) [22, 33]: 3 (Herbicidal rate of 40% or more and less than 70%); herbicidal effect on J: blackgrass (evaluation grade 0-5) [23, 33]: 0 (Herbicidal rate of 5% or less (almost no effect)); herbicidal effect on K: Italian ryegrass (evaluation grade 0-5) [24, 33]: 0 (Herbicidal rate of 5% or less (almost no effect)); herbicidal effect on L: windgrass (evaluation grade 0-5) [25, 33]: 5 (Herbicidal rate of 90% or more (almost completely withered)); herbicidal effect on M: velvetleaf (evaluation grade 0-5) [26, 33]: 0 (Herbicidal rate of 5% or less (almost no effect)); herbicidal effect on N: redroot pigweed (evaluation grade 0-5) [27, 33]: 0 (Herbicidal rate of 5% or less (almost no effect)); herbicidal effect on O: lambsquarters (evaluation grade 0-5) [28, 33]: 0 (Herbicidal rate of 5% or less (almost no effect)); herbicidal effect on P: chickweed (evaluation grade 0-5) [29, 33]: 5 (Herbicidal rate of 90% or more (almost completely withered)); herbicidal effect on R: persian speedwell (evaluation grade 0-5) [30, 33]: 5 (Herbicidal rate of 90% or more (almost completely withered))
